Results reported in patent US10604514B2, “6-(5-membered heteroaryl)isoquinolin-3-yl carboxamides and preparation and use thereof” (Samumed, LLC, priority 2017, dated 2020).
Read-outs that look alike come from different tables or passages of the source.

Key:
[1] = tested on: Wnt activity (Sp5-Luc reporter in SW480 colon carcinoma cells); assay: Wnt activity screening assay (Sp5-Luc reporter gene assay); assay type: cell-based, human
How it was run: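 Compounds at 10 points (1:3 steps, top 10 μM, 0.1% DMSO final) were incubated 36 to 48 h at 37° C with stable Sp5-Luc SW480 reporter cells in 1% FBS medium. Luciferase luminescence was then read and expressed relative to DMSO-only cells. Four-parameter variable-slope fitting yielded EC50 values.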

GSK3β kinase = GSK3β kinase (Homo sapiens (Human), UniProt P49841); assay: GSK3β kinase assay (Ser/Thr 09 peptide Z-lyte, FRET); assay type: biochemical; details: method text calls the value IC50;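 further: Coumarin/fluorescein emission ratio converted to percent phosphorylation against unphosphorylated (0%) and phosphorylated (100%) controls, 1 h compound incubation at room temperature, 11-point threefold dilutions from 10 µM, run in duplicate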
GSK3β kinase, sequence (P49841 whole entry): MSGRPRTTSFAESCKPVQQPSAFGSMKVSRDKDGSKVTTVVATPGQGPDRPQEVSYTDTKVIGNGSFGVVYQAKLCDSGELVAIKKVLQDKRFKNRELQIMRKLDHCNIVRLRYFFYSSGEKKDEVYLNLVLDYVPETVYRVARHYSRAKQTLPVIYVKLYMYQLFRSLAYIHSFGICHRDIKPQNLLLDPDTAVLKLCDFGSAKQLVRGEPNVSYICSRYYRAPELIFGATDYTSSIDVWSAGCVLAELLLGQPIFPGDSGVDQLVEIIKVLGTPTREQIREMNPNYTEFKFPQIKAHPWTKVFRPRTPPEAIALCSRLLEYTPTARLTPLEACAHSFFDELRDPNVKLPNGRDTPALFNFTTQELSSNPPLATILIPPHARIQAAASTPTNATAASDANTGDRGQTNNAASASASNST

[2] = tested on: Tau phosphorylation at Ser396 (pSer396), SH-SY5Y cells; assay: Tau phosphorylation at Ser396 (pSer396) in SH-SY5Y cells, ELISA/western blot; assay type: cell-based, human; details: Homo sapiens;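 further: cell lysates probed for reduced Tau pSer396 via ELISA (colorimetric) or western blot (chemiluminescence), both with one shared pSer396 antibody, EC50 for lowering phosphorylation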
[3] = tested on: SW480 colon carcinoma cells; assay: Cell viability assay (CellTiter-Glo) in SW480 cells; assay type: cell-based, human; details: Homo sapiens; for EC50: 96 h, cell viability, SW480 cells, four days, CellTiter-Glo;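 on all read-outs here: SW480 cells stably carrying an Sp5-luciferase TCF/LEF reporter, luminescent ATP signal as viability measure, DMSO-treated cells as control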
Method: Representative compounds were screened using the assay procedure to assess the effect on cell viability as described below.
SW480 colon carcinoma cells were transduced with a lentiviral vector expressing luciferase with a human Sp5 promoter consisting of a sequence of eight TCF/LEF binding sites. SW480 cells stably expressing the Sp5-Luc reporter gene and a hygromycin resistance gene were selected by treatment with 150 μg/mL of hygromycin for 7 days. These stably transduced SW480 cells were expanded in cell culture and used for all further screening activities. Each compound was dissolved in DMSO as a 10 mM stock and used to prepare compound source plates.
For the Cell Viability Assays, the cells were plated at 2,000 cells/well in 384-well plates with a DMEM medium containing 1% fetal bovine serum, and 1% Penicillin-Streptomycin and incubated for four days hours at 37° C. and 5% CO2. Eight replicates of DMSO-treated cells served as controls and cells treated with compound were performed in duplicate.
After incubation, 10 μL of CellTiter-Glo (Promega) was added to each well allowed to incubate for approximately 12 minutes.
Dose-response curves were generated and EC50 concentration values were calculated using non-linear regression curve fit in the GraphPad Prism (San Diego, Calif.) or Dotmatics' Studies Software (Bishops Stortford, UK).

[4] = tested on: LL29 cells (primary human fibroblasts derived from IPF patients), α-smooth muscle actin; assay: Inhibition of fibrotic process: αSMA in TGF-β1-treated primary human fibroblasts from IPF patients (LL29 cells); assay type: cell-based; details: Homo sapiens, Fibroblast; for EC50: 96 h, % αSMA-positive LL29 cells, TGF-β1 20 ng/mL, 4 days; for inhibition at 10 µM: read-out: percent inhibition at 10 μM
How it was run: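 Read-out is the percentage of αSMA-positive cells by high-content imaging, excluding SYTOX green-positive dead/apoptotic cells, normalized to TGF-β1-only wells on the same plate. LL29 cells were exposed for 4 days at 37 °C to 20 ng/mL TGF-β1 plus 11-point, 2-fold compound dilutions in 0.1% DMSO.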

IL-6 = IL-6 inhibition in LPS-stimulated human peripheral blood mononuclear cells (HTRF); assay type: cell-based; details: Homo sapiens, PBMC; for inhibition at 10 µM: read-out: percent value in parentheses below EC50 >10; for EC50: IL-6, LPS-stimulated huPBMCs, HTRF
How it was run: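 EC50 from a 4-parameter fit of DMSO-normalized HTRF (665/620 nm) IL-6 signal, duplicates. Compound was added to fresh human PBMCs in 1% FBS RPMI for 2 h (top 10 μM, 3-fold, 0.25% DMSO) before 22 h stimulation with LPS at 50 ng/mL, 37 °C.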

DYRK1A kinase = DYRK1A kinase (Homo sapiens (Human), UniProt Q13627); assay: DYRK1A kinase assay (Ser/Thr 18 peptide Z-lyte, FRET)
[5] = Homo sapiens; Sp5-Luc reporter, SW480 cells, 36 to 48 hours
[6] = SH-SY5Y cells, overnight (16-18 h), read-out: pSer396 Tau EC50
[7] = DYRK1A kinase, method text calls the value IC50

EC50 [1, 5]	EC50 (GSK3β kinase)	EC50 [2, 6]	EC50 [3]	EC50 (IL-6)	EC50 (DYRK1A kinase)	EC50 (DYRK1A kinase; [7])	Structure (SMILES)	EC50 [4]	inhibition at 10 µM [4]	inhibition at 10 µM (IL-6)	inhibition at 10 µM ([1]; Homo sapiens, SW480; read-out: percent inhibition at 10 μM)	inhibition at 10 µM ([1]; Homo sapiens, SW480, read-out: percent inhibition at 10 μM)	EC50 ([2]; SH-SY5Y, read-out: pSer396 Tau EC50 (μM))	inhibition at 10 µM ([3]; SW480, read-out: percent inhibition at 10 μM)
2940 nM	1780 nM	7.2 µM	3360 nM	> 10000 nM	11 nM		[2H]C1([2H])OC([2H])([2H])C([2H])([2H])N(C(=O)Nc2cc3cc(-c4cnc(C)n4C)ccc3cn2)C1([2H])[2H] [Compound 143, N-(6-(1,2-Dimethyl-1H-imidazol-5-yl)isoquinolin-3-yl)morpholine-d8-4-carboxamide]	> 10000 nM	40.4%	5.7%				
> 10000 nM	21 nM	> 10 µM	3770 nM	> 10000 nM	20 nM		[2H]C([2H])([2H])N([C@H]1CC[C@H](C(=O)Nc2cc3cc(-c4cnc(C)o4)ccc3cn2)CC1)C([2H])([2H])[2H] [Compound 144, trans-4-(Bis(methyl-d3)amino)-N-(6-(2-methyloxazol-5-yl)isoquinolin-3-yl) cyclohexane-1-carboxamide]	1380 nM		14.3%	35.8%			
1820 nM	80 nM	0.503 µM	1490 nM	371 nM	2 nM		[2H]C([2H])([2H])N([C@H]1CC[C@H](C(=O)Nc2cc3cc(-c4cnn(C)c4)ccc3cn2)CC1)C([2H])([2H])[2H] [Compound 145, trans-4-(Bis(methyl-d3)amino)-N-(6-(1-methyl-1H-pyrazol-4-yl)isoquinolin-3-yl)cyclohexane-1-carboxamide]	72 nM						
3110 nM	62 nM	1 µM	3840 nM	> 10000 nM		22 nM	Cc1nnc(-c2ccc3cnc(NC(=O)N4CCN(C(C)C)CC4)cc3c2)s1 [Compound 146, 4-Isopropyl-N-(6-(5-methyl-1,3,4-thiadiazol-2-yl)isoquinolin-3-yl) piperazine-1-carboxamide]	> 10000 nM	35.1%	2.1%				
3330 nM	37 nM	1.1 µM	4140 nM	> 10000 nM		18 nM	Cc1nnc(-c2ccc3cnc(NC(=O)N4CCC(NCCC(F)(F)F)CC4)cc3c2)s1 [Compound 147, N-(6-(5-Methyl-1,3,4-thiadiazol-2-yl)isoquinolin-3-yl)-4-((3,3,3-trifluoropropyl)amino)piperidine-1-carboxamide]	1640 nM		36.8%				
3440 nM	257 nM	0.599 µM	1200 nM	414 nM		14 nM	Cc1ncc(-c2ccc3cnc(NC(=O)[C@H]4CC[C@H](NCCC(F)(F)F)CC4)cc3c2)o1 [Compound 148, trans-N-(6-(2-Methyloxazol-5-yl)isoquinolin-3-yl)-4-((3,3,3-trifluoropropyl)amino)cyclohexane-1-carboxamide]	286 nM						
1400 nM	128 nM	1.1 µM	1340 nM	379 nM		7 nM	Cc1ncc(-c2ccc3cnc(NC(=O)[C@H]4CC[C@H](N)CC4)cc3c2)o1 [Compound 149, trans-4-amino-N-(6-(2-methyloxazol-5-yl)isoquinolin-3-yl)cyclohexane-1-carboxamide]	216 nM						
2190 nM	23 nM	0.272 µM	3920 nM	> 10000 nM		13 nM	Cc1nnc(-c2ccc3cnc(NC(=O)N4CCC(N)CC4)cc3c2)s1 [Compound 150, 4-Amino-N-(6-(5-methyl-1,3,4-thiadiazol-2-yl)isoquinolin-3-yl)piperidine-1-carboxamide]	> 10000 nM	43.7%	5.7%				
2840 nM	34 nM	0.615 µM	2550 nM	> 10000 nM		7 nM	Cc1nnc(-c2ccc3cnc(NC(=O)N4CCC(NCCF)CC4)cc3c2)s1 [Compound 156, 4-((2-Fluoroethyl)amino)-N-(6-(5-methyl-1,3,4-thiadiazol-2-yl)isoquinolin-3-yl)piperidine-1-carboxamide]	2380 nM		28.8%				
1730 nM	> 10000 nM	0.72 µM	2380 nM	> 10000 nM	19 nM		[2H]c1c([2H])c([2H])c(C(=O)Nc2cc3cc(-c4cnc(C)n4C)ccc3cn2)c(F)c1[2H] [Compound 157, N-(6-(1,2-Dimethyl-1H-imidazol-5-yl)isoquinolin-3-yl)-2-fluorobenzamide-3,4,5,6-d4]	5790 nM		0%				
514 nM	2600 nM	> 10 µM	781 nM	3360 nM	5 nM		[2H]c1c([2H])c(C(=O)Nc2cc3cc(-c4cnc(C)n4C)ccc3cn2)c([2H])c([2H])c1F [Compound 158, N-(6-(1,2-Dimethyl-1H-imidazol-5-yl)isoquinolin-3-yl)-4-fluorobenzamide-2,3,5,6-d4]	1220 nM						
4200 nM	> 10000 nM	> 10 µM	8000 nM	> 10000 nM	27 nM		[2H]c1c([2H])c([2H])c(C(=O)Nc2cc3cc(-c4cnc(C)n4C)ccc3cn2)c(Cl)c1[2H] [Compound 159, 2-Chloro-N-(6-(1,2-dimethyl-1H-imidazol-5-yl)isoquinolin-3-yl)benzamide-3,4,5,6-d4]	> 10000 nM	31.4%	1.6%				
309 nM	3030 nM	> 10 µM	415 nM	3300 nM	4 nM		[2H]c1c([2H])c(C(=O)Nc2cc3cc(-c4cnc(C)n4C)ccc3cn2)c([2H])c([2H])c1Cl [Compound 160, 4-Chloro-N-(6-(1,2-dimethyl-1H-imidazol-5-yl)isoquinolin-3-yl)benzamide-2,3,5,6-d4]	1010 nM						

Structure (SMILES)	EC50 [1, 5]	EC50 (GSK3β kinase)	EC50 [2, 6]	EC50 [3]	EC50 (IL-6)	EC50 (DYRK1A kinase)	EC50 (DYRK1A kinase; [7])	EC50 [4]	inhibition at 10 µM [4]	inhibition at 10 µM (IL-6)	inhibition at 10 µM ([1]; Homo sapiens, SW480; read-out: percent inhibition at 10 μM)	inhibition at 10 µM ([1]; Homo sapiens, SW480, read-out: percent inhibition at 10 μM)	EC50 ([2]; SH-SY5Y, read-out: pSer396 Tau EC50 (μM))	inhibition at 10 µM ([3]; SW480, read-out: percent inhibition at 10 μM)
Cc1nnc(-c2ccc3cnc(NC(=O)N4[C@@H]5CC[C@H]4C[C@H](N)C5)cc3c2)s1 [Compound 151, (1R,5S)-3-exo-Amino-N-(6-(5-methyl-1,3,4-thiadiazol-2-yl)isoquinolin-3-yl)-8-azabicyclo[3.2.1]octane-8-carboxamide]	> 10000 nM	103 nM		> 10000 nM	> 10000 nM		9 nM	2690 nM		13.1%		4.4%	2.6 µM	0%
Cc1ncc(-c2ccc3cnc(NC(=O)C4CCC(N5CC5CF)CC4)cc3c2)o1 (stereo not drawn) [Compound 154, trans-4-(2-(fluoromethyl)aziridin-1-yl)-N-(6-(2-methyloxazol-5-yl)isoquinolin-3-yl)cyclohexane-1-carboxamide]	2760 nM	124 nM	0.58 µM	761 nM	1130 nM	5 nM		240 nM						
